In PMC3156385 (Chemical research in toxicology, 2011):

Experiments:
rat liver P450 1A1 = biological target: T1, rat liver P450 1A1 (Rattus norvegicus, UniProt P00185); assay type: binding; settings: 1.5 µM rat P450 1A1 (low-spin); 1.25~80 µM BSC
T1 sequence (P00185 1-524): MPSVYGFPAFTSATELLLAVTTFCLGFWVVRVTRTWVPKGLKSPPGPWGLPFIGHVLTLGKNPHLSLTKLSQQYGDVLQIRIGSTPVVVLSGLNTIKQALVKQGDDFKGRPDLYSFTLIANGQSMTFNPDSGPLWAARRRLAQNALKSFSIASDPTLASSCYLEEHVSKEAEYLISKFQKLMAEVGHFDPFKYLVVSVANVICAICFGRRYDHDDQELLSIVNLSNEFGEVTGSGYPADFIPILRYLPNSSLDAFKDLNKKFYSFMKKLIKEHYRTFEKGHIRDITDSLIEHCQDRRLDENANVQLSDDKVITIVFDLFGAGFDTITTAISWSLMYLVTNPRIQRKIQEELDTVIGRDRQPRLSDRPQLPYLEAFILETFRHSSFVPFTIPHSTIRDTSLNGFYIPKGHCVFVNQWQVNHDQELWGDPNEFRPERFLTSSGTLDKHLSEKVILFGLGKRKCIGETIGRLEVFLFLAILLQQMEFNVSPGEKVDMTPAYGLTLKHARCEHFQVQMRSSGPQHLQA

rat liver P450 1A2 = biological target: T2, rat liver P450 1A2 (Rattus norvegicus, UniProt P04799); assay type: binding
T2 sequence (P04799 1-513): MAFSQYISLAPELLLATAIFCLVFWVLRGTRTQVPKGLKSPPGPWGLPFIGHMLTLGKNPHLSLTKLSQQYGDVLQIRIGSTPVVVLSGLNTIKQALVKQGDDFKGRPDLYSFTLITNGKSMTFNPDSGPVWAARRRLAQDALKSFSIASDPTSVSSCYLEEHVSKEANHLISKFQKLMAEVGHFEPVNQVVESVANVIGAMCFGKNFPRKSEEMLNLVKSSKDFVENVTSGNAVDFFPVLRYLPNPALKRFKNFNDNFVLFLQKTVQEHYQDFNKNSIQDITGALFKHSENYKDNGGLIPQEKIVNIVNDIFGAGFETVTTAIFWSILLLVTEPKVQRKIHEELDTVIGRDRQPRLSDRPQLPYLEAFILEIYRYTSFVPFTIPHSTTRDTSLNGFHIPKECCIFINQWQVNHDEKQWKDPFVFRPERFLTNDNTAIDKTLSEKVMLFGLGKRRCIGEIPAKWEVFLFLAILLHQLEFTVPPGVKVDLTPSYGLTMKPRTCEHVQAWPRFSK

rabbit liver P450 1A2 = biological target: T3, rabbit liver P450 1A2 (Oryctolagus cuniculus, UniProt P00187); assay type: binding
T3 sequence (P00187 1-516): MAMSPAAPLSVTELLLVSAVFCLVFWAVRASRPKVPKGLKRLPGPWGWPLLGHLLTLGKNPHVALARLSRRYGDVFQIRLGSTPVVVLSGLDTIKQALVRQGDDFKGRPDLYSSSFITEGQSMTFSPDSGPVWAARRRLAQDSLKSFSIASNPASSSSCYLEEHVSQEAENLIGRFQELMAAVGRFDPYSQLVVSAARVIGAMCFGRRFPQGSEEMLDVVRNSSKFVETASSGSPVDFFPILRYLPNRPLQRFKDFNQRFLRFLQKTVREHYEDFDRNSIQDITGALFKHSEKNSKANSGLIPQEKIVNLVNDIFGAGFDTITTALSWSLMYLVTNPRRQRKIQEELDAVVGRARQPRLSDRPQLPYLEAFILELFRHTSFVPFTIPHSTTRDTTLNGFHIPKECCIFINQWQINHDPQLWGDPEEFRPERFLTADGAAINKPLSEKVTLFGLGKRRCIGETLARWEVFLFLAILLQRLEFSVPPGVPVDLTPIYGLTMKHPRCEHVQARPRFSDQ

P450 1A1 = biological target: T4, P450 1A1 (Homo sapiens, UniProt P04798); assay: Inhibition of P450 1A1-dependent EROD activity; assay type: biochemical
T4 sequence (P04798 1-512): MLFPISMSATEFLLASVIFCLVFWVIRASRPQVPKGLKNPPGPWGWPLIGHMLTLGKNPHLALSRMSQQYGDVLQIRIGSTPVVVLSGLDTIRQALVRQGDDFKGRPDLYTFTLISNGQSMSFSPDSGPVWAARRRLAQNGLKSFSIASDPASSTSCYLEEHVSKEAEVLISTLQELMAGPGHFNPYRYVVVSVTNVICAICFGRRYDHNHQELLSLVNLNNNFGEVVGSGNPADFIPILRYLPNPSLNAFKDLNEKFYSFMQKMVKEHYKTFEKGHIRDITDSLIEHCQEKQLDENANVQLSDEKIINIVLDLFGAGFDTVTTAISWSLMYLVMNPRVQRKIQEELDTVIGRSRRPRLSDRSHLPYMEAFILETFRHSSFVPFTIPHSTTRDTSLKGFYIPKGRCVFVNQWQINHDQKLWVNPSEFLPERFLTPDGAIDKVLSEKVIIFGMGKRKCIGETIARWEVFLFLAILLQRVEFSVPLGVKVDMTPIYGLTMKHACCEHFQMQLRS

P450 1A2 [1] = biological target: T5, P450 1A2 (Homo sapiens, UniProt P05177); assay: Inhibition of P450 1A2-dependent EROD activity; assay type: biochemical
T5 sequence (P05177 1-516): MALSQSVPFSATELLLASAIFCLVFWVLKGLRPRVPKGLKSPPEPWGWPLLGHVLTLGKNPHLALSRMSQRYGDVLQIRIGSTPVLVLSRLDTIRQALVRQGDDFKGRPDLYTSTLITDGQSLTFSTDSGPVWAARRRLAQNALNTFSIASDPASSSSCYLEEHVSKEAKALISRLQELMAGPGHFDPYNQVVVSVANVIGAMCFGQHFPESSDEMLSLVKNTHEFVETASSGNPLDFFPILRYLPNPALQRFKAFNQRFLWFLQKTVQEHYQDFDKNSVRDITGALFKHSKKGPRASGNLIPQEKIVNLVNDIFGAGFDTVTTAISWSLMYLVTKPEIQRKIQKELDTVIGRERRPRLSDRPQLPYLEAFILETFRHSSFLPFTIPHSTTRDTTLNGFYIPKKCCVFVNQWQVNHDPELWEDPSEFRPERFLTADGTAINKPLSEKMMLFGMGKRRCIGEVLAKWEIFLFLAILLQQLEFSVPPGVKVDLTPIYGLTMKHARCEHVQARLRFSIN

P450 1A2 [2] = biological target: T5, P450 1A2; assay: Spectral binding titration with purified recombinant P450 1A2; settings: for ΔAmax/Ks / ΔAmax: Reverse Type I binding, 1 µM P450; for ΔAmax: means ± SE

Structure (SMILES)	spectral changes (rat liver P450 1A1)	Kd (rat liver P450 1A2)	Kd (rabbit liver P450 1A2)	IC50 (P450 1A1)	IC50 (P450 1A2 [1])	Kd (P450 1A2 [2])	ΔAmax/Ks (P450 1A2 [2])	ΔAmax (P450 1A2 [2])
N#C[Se]Cc1ccccc1 [BSC, benzyl selenocyanate]	did not show any spectral changes	16 ± 2.4 µM	90 ± 29 µM	0.45 ± 0.038 µM	1.3 ± 0.22 µM	11 ± 2.3 µM	0.88 × 10^−3	9.5 ± 0.57 × 10^−3
N#C[Se]Cc1cccc(C[Se]C#N)c1 [m-XSC, 1,3-phenylenebis(methylene)selenocyanate]	–	–	–	–	–	13 ± 1.9 µM	0.46 × 10^−3	5.8 ± 0.25 × 10^−3
